Assay results published in patent publication US7776572B2, “Method for reducing loss of enzyme activity during storage” (Corning Incorporated, priority 1996, dated 2010).
Read-outs that look alike come from different tables or passages of the source.

Key:
[1] = test system: rat; conditions: cited from earlier work
[2] = test system: HRP-Goat A'Mouse IgG; assay: Enzymatic determination of protein binding to coated medium binding polystyrene plate; conditions: coated medium binding PS; versus uncoated high binding polystyrene plate; absorbance 405 nm
Experimental: The surfactants were coated onto a medium binding polystyrene plate (Corning Costar No. 2587) as described in Material and Methods. A medium binding polystyrene plate (Corning Costar No. 2587) and a high binding polystyrene plate (Corning Costar No. 2581) were used as controls.
(a) HRP-Goat A'Mouse IgG: Kirkegaard & Perry Laboratories, Inc. Catalog No. 074-1806. Stock solution: 0.5 mg/ml; working concentration: 0.04 μg/ml. The working concentration was obtained by adding 11 μl of the stock solution per 25 mls of PBS pH 7.4 to produce a work stock (WS), and then diluting 1:6 (i.e., 10 mls WS+50 mls PBS pH 7.4).
(1) 100 μl-well of HRP-Goat A'Mouse IgG at a concentration of 0.04 μg/ml were added to the test wells and incubated for 1 hour at room temperature.
(2) The wells were then washed 5 times with the 1M wash solution. Each wash include a 5 minute soak followed by decanting.
(3) 100 μl/well of substrate (30 mls ABTS+30 mls H2O2) were added to the test wells and incubated for 15 minutes at room temperature in the dark.
(4) 100 μl/well of stopping solution (1% SDS) were added to the test wells.
(5) The plates were then shaken and read at 405 nm.
(6) Reduction in binding was determined by comparing the absorbance measured in step (5) with the absorbance measured for a high binding polystyrene plate which had not been treated with a non-ionic surfactant but otherwise subjected to steps (1) to (5).

[3] = test system: Horse IgG; assay: Protein binding by colloidal gold staining, coated medium binding polystyrene plates; conditions: coated medium binding PS; IgG 10 μg/ml, pH 9.4
Experimental: Except where indicated, the non-ionic surfactants were applied to the hydrophobic surfaces being tested as a 0.1% (weight/volume) solution in isopropanol. A sufficient amount of coating solution was used to cover the surface being testing with a thin layer of the solution (e.g., 25 μl of the solution per well for a standard 24-well plate). In some cases, the solution was applied to surface by spraying; in others, it was poured onto the surface (into the well). Except where indicated, coated samples were either dried at 70° C. for 30 minutes in an air circulated oven or dried at room temperature overnight to evaporate the isopropanol.
Protein binding was determined in some examples using a colloidal gold straining procedure. In accordance with this procedure, colloidal gold becomes electrostatically attached to bound protein and is detected by measuring absorbance at 550 nanometers. Bio-Rad Laboratories' Colloidal Gold Total Protein Stain was used for this purpose, with absorbance being measured with a Cambridge Technologies Plate Reader (No. 7520).
The surfactants were coated onto medium binding polystyrene plates (Corning Costar No. 2587) as described in Material and Methods.
The plates were incubated with IgG as follows: 0.1 ml of Horse IgG (Pierce Labs) at a working concentration of 10 μg/ml in 0.10M NaHCO3 buffer (pH9.4) were added to each well, incubated 30 minutes on a rocker table, and rinsed with dI H2O. The plates were gold stained overnight (0.3 ml/well), rinsed in dI H2O, air dried, and absorbance was measured at 550 nm.

[4] = test system: bound protein; assay: Colloidal gold staining of bound protein after MDCK culture in media containing 5% FBS, visual; conditions: colloidal gold after cell culture, visual observation
Experimental: The procedures used were as follows. Polystyrene 24-well plates were coated with the non-ionic surfactants listed in Table 5 in accordance with the procedures described in Materials and Methods. Uncoated plates were used as a control. For comparison, plates with a covalently attached acrylamide coating (Corning Costar Catalog #2500) and with a stearic acid coating were also tested. The stearic acid coating was applied in the same manner as the non-ionic surfactants again using a 0.1% (w/v) solution.
The plates were gamma sterilized at 1.5 Mrad and then inoculated with 5.6×10^4 MDCK […] per well in 1 ml of complete media containing 5% FBS (Fetal Bovine Serum). Incubation was carried out at 37° C. in a 5% CO2 atmosphere for two days. The plates were fixed and stained, and cell attachment was noted. Following this, the wells were stained using the colloidal gold technique to detect bound protein. Only visual observations were made.

[5] = test system: ^125I-IgG (goat anti-mouse); assay: Radiometric determination of IgG binding to surfactant-coated polystyrene microtiter wells; conditions: for Total IgG binding, Non-Sterilized: coated polystyrene wells; for Total IgG binding, Non-Sterilized / Tight IgG binding, Non-Sterilized: not sterilized; for Total IgG binding, Non-Sterilized / Total IgG binding, Sterilized: after three PBS washes; for Total IgG binding, Sterilized / Tight IgG binding, Sterilized: gamma sterilized (1.5 Mrad); for Tight IgG binding, Sterilized / Tight IgG binding, Non-Sterilized: after two hours in PBS-Tween (0.05%)
Experimental: The hydrophobic surfaces used were flat bottom microtiter plates composed of high binding polystyrene (Corning Costar No. 2581) and medium binding polystyrene (Corning Costar No. 2587). Testing was performed with and without gamma radiation sterilization using cobalt 60 (1.5 Mrad).
The surfactants were applied to the test plates as described in Materials and Methods, followed by sterilization where indicated.
Levels of protein binding were determined using a radiolabeled protein, namely, ^125I-IgG (goat anti-mouse) purchased from DuPont/NEN. Unlabeled IgG in sodium carbonate buffer pH 9.2 was spiked with ^125I-IgG so that the final concentration of labeled IgG and cold IgG in the test solution was 10 μg/mL.
Aliquots of 0.1 milliliters of the protein solution were placed in quadruplicate in the wells of 8-well strips removed from the test microtiter plates. The wells were incubated overnight at 4° C. with shaking. The supernatants were removed from the wells, followed by three washes with 0.2 mL of PBS. The wells were then dried and individually counted to determine “total” IgG binding. After determining “total” binding, the wells were incubated for two hours in 0.2 mL of PBS-Tween (0.05%) at room temperature with shaking. The supernatants were removed from the wells followed by three washes with 0.2 mL of PBS. The wells were dried and individually counted to determine “tight” IgG binding.
Untreated high binding and medium binding plates were used as controls. A comparative experiment was also performed in which a BSA protein coating was used in place of a surfactant coating. The BSA was preabsorbed onto the walls of the wells and then washed to remove excess material. Testing was then performed using the radiolabeled IgG solution as described above.
Radiolabel measurements were performed in a double blind study at BioMolecular Assays (Woburn, Mass.). IgG binding values per microwell were converted to ng/cm^2 values using a surface area of 0.94 cm^2 for a 0.1 mL volume.

[6] = test system: IgG; assay: IgG/Au staining of coated polystyrene, type of endgroups
Experimental: Except where indicated, the non-ionic surfactants were applied to the hydrophobic surfaces being tested as a 0.1% (weight/volume) solution in isopropanol. A sufficient amount of coating solution was used to cover the surface being testing with a thin layer of the solution (e.g., 25 μl of the solution per well for a standard 24-well plate). In some cases, the solution was applied to surface by spraying; in others, it was poured onto the surface (into the well). Except where indicated, coated samples were either dried at 70° C. for 30 minutes in an air circulated oven or dried at room temperature overnight to evaporate the isopropanol. Protein binding was determined in some examples using a colloidal gold straining procedure. In accordance with this procedure, colloidal gold becomes electrostatically attached to bound protein and is detected by measuring absorbance at 550 nanometers. Bio-Rad Laboratories' Colloidal Gold Total Protein Stain was used for this purpose, with absorbance being measured with a Cambridge Technologies Plate Reader (No. 7520). The non-ionic surfactants listed in Table 6 were tested for their ability to produce a low binding surface using the techniques described in Materials and Methods. Polystyrene was used as the hydrophobic test surface and IgG/Au staining was used as the readout.

[7] = test system: BSA protein (Bovine Serum Albumin, Fraction V); assay: BSA binding to coated polystyrene 24-well plates at different pH, colloidal gold stain
Experimental: Polystyrene plates having 24 wells (Corning Costar #9447) were coated as described in Materials and Methods.
BSA protein (Bovine Serum Albumin, Fraction V, Sigma) was prepared at 10 μg/ml in 0.10 M acetate buffer (pH=4.6), in 0.10 M PBS (pH=7.4), and in 0.10 M NaHCO3 buffer (pH=9.2). Wells of each coated plate, along with uncoated controls, were aliquoted 0.50 ml each of the protein solutions. The samples were run in triplicate.
The plates were placed on a rocker table for 30 minutes at 23° C. The protein solutions were then emptied from the plates, and the wells were rinsed three times with dl H2O. Thereafter, 1.0 ml of colloidal gold stain was added to each well (see Materials and Methods). The plates were placed on a rocker table overnight, rinsed three times with dI H2O, and air dried. Absorbance at 550 nm was then read using the Cambridge Technologies Plate Reader.

[8] = test system: BSA; assay: Polymer blends molded into petri dishes, BSA binding by colloidal gold; conditions: blended at 5% into polypropylene; silver enhancer
[9] = test system: Fetal Bovine Serum (FBS); assay: Polymer blends molded into petri dishes, FBS protein binding by colloidal gold; conditions: blended at 5% into polypropylene; silver enhancer
Experimental: Low binding non-ionic surfactant molecules were blended at 5% (except as noted in Table 13) into a base polymer using a twin screw extruder, then injection molded into the shape of 35 mm petri dishes. Proteins tested were BSA and Fetal Bovine Serum (FBS). Protein binding was determined using a colloidal gold staining procedure as described above. In the case of the polypropylene and EVA blends, a silver enhancer was used (Sigma Chem. Co., St, Louis, Mo., Kit #SE-100).

[10] = test system: IgG; assay: Coating durability using water washes, IgG binding by colloidal gold
Experimental: Polystyrene plates having 24 wells (Corning Costar #9447) were coated with these surfactants as described in Materials and Methods. Durability was tested by adding dI H2O to the wells of a test plate (3.0 mls/well), following which the plate was placed on a rocker table. […] The protein solution was incubated with the plate on a rocker table for 30 minutes at 23° C., following which the plate was H2O rinse 3× (3 mls each time). The colloidal gold staining procedure described above was used to reveal bound protein. The staining comprised an overnight incubation on a rocker table at 23° C., a dI H2O rinse, drying at room temperature, and reading at 550 nm.

## O=[As]O[As]=O (centres unmarked) [As2O3, reference compound]
[1]
  LD50: 0.02 grams/Kg

## CCCCCCCC/C=C\CCCCCCCC(=O)OCC(O)CO (centres unmarked) [GLYCEROL MONO-OLEATE]
[2]
  % Reduction in Protein Binding: 92.4%

## [Cl-].[Na+] [NaCl, reference compound]
[1]; in vivo
  LD50: 4 grams/Kg

## CCCCCCCCCCCCCCCCOCCOCCO [PEO(2) CETYL ETHER]
[3]
  IgG Protein Binding Absorbance (550 nm): 0.00
[4]
  Visual Color Upon Protein Staining: None
[2]
  % Reduction in Protein Binding: 99.9%
[5]
  Total IgG binding, Non-Sterilized: 18 ng/cm^2
  Total IgG binding, Sterilized: 54 ng/cm^2
  Tight IgG binding, Sterilized: 25 ng/cm^2
  Tight IgG binding, Non-Sterilized: 11 ng/cm^2
[6]
  Bound Protein Absorbance at 550 nm: 0.00
[7]; BSA 10 μg/ml in 0.10 M NaHCO3 buffer
  Absorbance (550 nm) pH = 9.2: 0.00
[7]; BSA 10 μg/ml in 0.10 M PBS
  Absorbance (550 nm) pH = 7.4: 0.00
[7]; BSA 10 μg/ml in 0.10 M acetate buffer
  Absorbance (550 nm) pH = 4.6: 0.00

## CCCCCCCCCCCCCCCCCC(=O)O [STEARIC ACID, reference compound]
[4]
  Visual Color Upon Protein Staining: Very dark

## BSA Protein: BSA protein coating preabsorbed onto the wells, used in place of a surfactant coating [reference compound]
[5]
  Total IgG binding, Non-Sterilized: 594 ng/cm^2
  Tight IgG binding, Non-Sterilized: 173 ng/cm^2

## PEO(4) SORBITOL MONO-LAURATE
[3]
  IgG Protein Binding Absorbance (550 nm): 0.00
[2]
  % Reduction in Protein Binding: 99.8%
[8]
  Bound Protein Absorbance (550 nm) BSA: 0.060
[5]
  Total IgG binding, Non-Sterilized: 4 ng/cm^2
  Total IgG binding, Sterilized: 5 ng/cm^2
  Tight IgG binding, Sterilized: 3 ng/cm^2
  Tight IgG binding, Non-Sterilized: 2 ng/cm^2
[6]
  Bound Protein Absorbance at 550 nm: 0.00
[9]
  Bound Protein Absorbance (550 nm) FBS: 0.056
[10]; coated polystyrene, no water wash
  Absorbance (550 nm) Initial: 0.00
[10]; dI H2O wash 1 time, 1 hr, 23° C.
  Absorbance (550 nm) 1 Time 1 hr 23° C.: 0.09
[10]; dI H2O wash 1 time, 24 hr, 23° C.
  Absorbance (550 nm) 1 Time 24 hr 23° C.: 0.10
[10]; dI H2O wash 1 time, 24 hr, 37° C.
  Absorbance (550 nm) 1 Time 24 hr 37° C.: 0.10
[10]; dI H2O wash 1 time, 24 hr, 70° C.
  Absorbance (550 nm) 1 Time 24 hr 70° C.: 0.10
[10]; dI H2O wash 6 times, 30 min each, 23° C.
  Absorbance (550 nm) 6 Times 30 min each 23° C.: 0.10
